From the CheMixHub viscosity set

Test: xn = mol fraction of the nth substance listed

CCCC(C)=O + CCCCN
303.15 K, 101.33 kPa
Details | viscosity [mPa·s]
x2 = 0.1 | 0.608
x2 = 0.1974 | 0.752
x2 = 0.3754 | 0.936
x2 = 0.5189 | 1.023
x2 = 0.6418 | 1.061
x2 = 0.7158 | 0.949
x2 = 0.8252 | 0.825
x2 = 0.8978 | 0.709

CCN(CC)CC + CCCCN
viscosity [mPa·s], 101.33 kPa
Details | x1 = 0.1038 | x1 = 0.2009 | x1 = 0.4065 | x1 = 0.5021 | x1 = 0.5996 | x1 = 0.801 | x1 = 0.8898
303.15 K | 0.4186 | 0.4019 | 0.3761 | 0.3681 | 0.3611 | 0.357 | 0.3569
313.15 K | 0.3692 | 0.3555 | 0.3345 | 0.329 | 0.3244 | 0.3216 | 0.3228

CCCC(C)=O + CCCCN(CCCC)CCCC
viscosity [mPa·s], 101 kPa
Details | 298.15 K | 303.15 K | 308.15 K
x2 = 0.0499 | 0.49 | 0.465 | 0.436
x2 = 0.1 | 0.521 | 0.49 | 0.462
x2 = 0.1499 | 0.554 | 0.521 | 0.491
x2 = 0.2 | 0.588 | 0.551 | 0.519
x2 = 0.2498 | 0.624 | 0.584 | 0.547
x2 = 0.3 | 0.66 | 0.614 | 0.575
x2 = 0.3999 | 0.735 | 0.681 | 0.636
x2 = 0.4997 | 0.81 | 0.75 | 0.698
x2 = 0.5997 | 0.889 | 0.821 | 0.764
x2 = 0.7002 | 0.974 | 0.898 | 0.832
x2 = 0.7997 | 1.065 | 0.977 | 0.902
x2 = 0.8463 | 1.108 | 1.02 | 0.936
x2 = 0.899 | 1.165 | 1.064 | 0.979
x2 = 0.956 | 1.227 | 1.118 | 1.025

CCN(CC)CC + CCCCO
303.15 K, 101 kPa
Details | viscosity [mPa·s]
x1 = 0.01087 | 2.223
x1 = 0.02221 | 2.193
x1 = 0.0326 | 2.162
x1 = 0.04176 | 2.133
x1 = 0.05247 | 2.098
x1 = 0.06249 | 2.076
x1 = 0.07262 | 2.052
x1 = 0.08419 | 2.019
x1 = 0.09512 | 1.991

ClC(Cl)(Cl)Cl + CCCCO
Details | viscosity [mPa·s]
298.15 K, 101 kPa, x2 = 0.0326 | 0.903
298.15 K, 101 kPa, x2 = 0.0846 | 0.92
298.15 K, 101 kPa, x2 = 0.1 | 0.918
298.15 K, 101 kPa, x2 = 0.19 | 0.975
298.15 K, 101 kPa, x2 = 0.2668 | 1.058
298.15 K, 101 kPa, x2 = 0.27 | 1.046
298.15 K, 101 kPa, x2 = 0.34 | 1.135
298.15 K, 101 kPa, x2 = 0.425 | 1.293
298.15 K, 101 kPa, x2 = 0.4916 | 1.42
298.15 K, 101 kPa, x2 = 0.58 | 1.56
298.15 K, 101 kPa, x2 = 0.629 | 1.778
298.15 K, 101 kPa, x2 = 0.67 | 1.794
298.15 K, 101 kPa, x2 = 0.6978 | 1.88
298.15 K, 101 kPa, x2 = 0.76 | 1.979
298.15 K, 101 kPa, x2 = 0.7789 | 2.078
298.15 K, 101 kPa, x2 = 0.836 | 2.291
298.15 K, 101 kPa, x2 = 0.89 | 2.325
298.15 K, 101.32 kPa, x2 = 0.09917 | 0.919
298.15 K, 101.32 kPa, x2 = 0.1956 | 0.972
298.15 K, 101.32 kPa, x2 = 0.3011 | 1.074
298.15 K, 101.32 kPa, x2 = 0.3746 | 1.163
298.15 K, 101.32 kPa, x2 = 0.5434 | 1.464
298.15 K, 101.32 kPa, x2 = 0.5847 | 1.552
298.15 K, 101.32 kPa, x2 = 0.687 | 1.806
298.15 K, 101.32 kPa, x2 = 0.7888 | 2.065
298.15 K, 101.32 kPa, x2 = 0.8923 | 2.329
303.15 K, 101 kPa, x2 = 0.0559 | 0.8424
303.15 K, 101 kPa, x2 = 0.057 | 0.8423
303.15 K, 101 kPa, x2 = 0.1084 | 0.8543
303.15 K, 101 kPa, x2 = 0.1137 | 0.856
303.15 K, 101 kPa, x2 = 0.1851 | 0.8882
303.15 K, 101 kPa, x2 = 0.1887 | 0.8907
303.15 K, 101 kPa, x2 = 0.2871 | 0.9679
303.15 K, 101 kPa, x2 = 0.3823 | 1.076
303.15 K, 101 kPa, x2 = 0.4772 | 1.215
303.15 K, 101 kPa, x2 = 0.5086 | 1.268
303.15 K, 101 kPa, x2 = 0.6468 | 1.527
303.15 K, 101 kPa, x2 = 0.6792 | 1.593
303.15 K, 101 kPa, x2 = 0.7591 | 1.764
303.15 K, 101 kPa, x2 = 0.8416 | 1.943
303.15 K, 101 kPa, x2 = 0.893 | 2.054
303.15 K, 101 kPa, x2 = 0.9516 | 2.176
303.15 K, 101 kPa, x2 = 0.9563 | 2.186
303.15 K, 101.3 kPa, x1 = 0.7915 | 1.005
308.15 K, 101 kPa, x2 = 0.0846 | 0.801
308.15 K, 101 kPa, x2 = 0.2668 | 0.902
308.15 K, 101 kPa, x2 = 0.629 | 1.372
308.15 K, 101 kPa, x2 = 0.6978 | 1.487
308.15 K, 101 kPa, x2 = 0.7789 | 1.647
308.15 K, 101 kPa, x2 = 0.836 | 1.76
318.15 K, 101 kPa, x2 = 0.0326 | 0.684
318.15 K, 101 kPa, x2 = 0.0846 | 0.692
318.15 K, 101 kPa, x2 = 0.2668 | 0.773
318.15 K, 101 kPa, x2 = 0.425 | 0.883
318.15 K, 101 kPa, x2 = 0.4916 | 0.95
318.15 K, 101 kPa, x2 = 0.629 | 1.116
318.15 K, 101 kPa, x2 = 0.6978 | 1.189
318.15 K, 101 kPa, x2 = 0.7789 | 1.313
318.15 K, 101 kPa, x2 = 0.836 | 1.416

CCCOC(C)=O + CCCCOC(C)=O
viscosity [mPa·s], 101 kPa
Details | x1 = 0.2 | x1 = 0.4 | x1 = 0.6 | x1 = 0.8
293.15 K | 0.697 | 0.67 | 0.644 | 0.618
313.15 K | 0.538 | 0.519 | 0.5 | 0.481

ClC(Cl)(Cl)Cl + CCCCOC(C)=O
101.33 kPa
Details | viscosity [mPa·s]
303.15 K, x1 = 0.1942 | 0.664
303.15 K, x1 = 0.3145 | 0.685
303.15 K, x1 = 0.4207 | 0.702
303.15 K, x1 = 0.5252 | 0.72
303.15 K, x1 = 0.5754 | 0.732
303.15 K, x1 = 0.7049 | 0.759
303.15 K, x1 = 0.7537 | 0.774
303.15 K, x1 = 0.8196 | 0.788
303.15 K, x1 = 0.8765 | 0.803
303.15 K, x1 = 0.9415 | 0.823
313.15 K, x1 = 0.2041 | 0.587
313.15 K, x1 = 0.4028 | 0.619
313.15 K, x1 = 0.5068 | 0.634
313.15 K, x1 = 0.604 | 0.651
313.15 K, x1 = 0.8058 | 0.695

CCN(CC)CC + CCCCOCCO
viscosity [mPa·s], 100 kPa
Details | 298.15 K | 303.15 K | 308.15 K
x2 = 0.0506 | 0.431 | 0.407 | 0.383
x2 = 0.1002 | 0.51 | 0.474 | 0.447
x2 = 0.1499 | 0.598 | 0.553 | 0.518
x2 = 0.2 | 0.689 | 0.632 | 0.594
x2 = 0.3001 | 0.875 | 0.802 | 0.75
x2 = 0.3999 | 1.097 | 0.99 | 0.922
x2 = 0.5001 | 1.35 | 1.212 | 1.122
x2 = 0.6 | 1.632 | 1.457 | 1.342
x2 = 0.6996 | 1.946 | 1.714 | 1.576
x2 = 0.7994 | 2.254 | 1.979 | 1.809
x2 = 0.8995 | 2.578 | 2.264 | 2.058
x2 = 0.9498 | 2.724 | 2.392 | 2.174
